Reference: paper PMC12737022, “Evaluations of Sex Differences in Dosimetry in Rats Following Perfluorohexanesulfonamide (PFHxSA) Oral Exposure” (Toxics, 2025)
“And” between values parts separate entries of the source, which are not always exact repeats. Identical values can stand only once. Like-named read-outs stand apart in the source and are kept apart here.

Assay: Liver-to-plasma partitioning (Kp)
Type: in vivo, rat
Conditions: for Kp at 120 h: po
Description: Liver-to-plasma partitioning (Kp) for PFHxSA was assessed for each sex (SI Text S8, Table 6). There were no sex differences in PFHxSA Kp values. […] Refer to SI Table S15 for Kp results for individual rats. […]
Text S8 Liver-to-Plasma Partitioning Coefficient Calculation
Concentrations (µM) of PFHxSA in liver and plasma were used to calculate experimental liver-to-
plasma (Kp) partitioning values for both sexes across all dose levels using Equation E.
(E) K ௣ = Concentration௢௥௚௔௡Concentration௣௟௔௦௠௔

NS(=O)(=O)C(F)(F)C(F)(F)C(F)(F)C(F)(F)C(F)(F)C(F)(F)F [PFHxSA, Perfluorohexanesulfonamide]
Female Partition Coefficient (Kp), liver-plasma (PFHxSA 0.1 mg/kg/day oral 5 days, female, individual rats): 0.516 and 0.491 and 0.293 and 0.378
Male Partition Coefficient (Kp), liver-plasma (PFHxSA 0.1 mg/kg/day oral 5 days, male, individual rats): 0.662 and 0.433 and 0.319 and 0.860 and 0.744
Female Partition Coefficient (Kp), liver-plasma (PFHxSA 0.3 mg/kg/day oral 5 days, female, individual rats): 0.633 and 0.239 and 0.486 and 0.499 and 0.302
Male Partition Coefficient (Kp), liver-plasma (PFHxSA 0.3 mg/kg/day oral 5 days, male, individual rats): 0.215 and 0.362 and 0.134 and 0.315 and 0.255
Female Partition Coefficient (Kp), liver-plasma (PFHxSA 1 mg/kg/day oral 5 days, female, individual rats): 0.197 and 0.224 and 0.122 and 0.325
Male Partition Coefficient (Kp), liver-plasma (PFHxSA 1 mg/kg/day oral 5 days, male, individual rats): 0.233 and 0.174 and 0.293 and 0.249
Female Partition Coefficient (Kp), liver-plasma (PFHxSA 3 mg/kg/day oral 5 days, female, individual rats): 0.280 and 0.239 and 0.244
Male Partition Coefficient (Kp), liver-plasma (PFHxSA 3 mg/kg/day oral 5 days, male, individual rats): 0.193 and 0.153 and 0.235 and 0.105 and 0.244
Female Partition Coefficient (Kp), liver-plasma (PFHxSA 10 mg/kg/day oral 5 days, female, individual rats): 0.145 and 0.119 and 0.113 (2×)
Male Partition Coefficient (Kp), liver-plasma (PFHxSA 10 mg/kg/day oral 5 days, male, individual rats): 0.249 and 0.178 and 0.194
Female Partition Coefficient (Kp), liver-plasma (PFHxSA 30 mg/kg/day oral 5 days, female, individual rats): 0.134 and 0.142 and 0.162 and 0.147
Male Partition Coefficient (Kp), liver-plasma (PFHxSA 30 mg/kg/day oral 5 days, male, individual rats): 0.142 (2×) and 0.145
Female Partition Coefficient (Kp), liver-plasma (PFHxSA 100 mg/kg/day oral 5 days, female, individual rats): 0.187 and 0.344 and 0.214 and 0.213
Male Partition Coefficient (Kp), liver-plasma (PFHxSA 100 mg/kg/day oral 5 days, male, individual rats): 0.506 and 0.754 and 0.306 and 0.230 and 0.221
Kp at 24 h (both sexes, Sprague Dawley (Crl:CD(SD)), rat, liver and plasma, oral, both sexes across all tested doses): 0.13 to 0.6
Kp at 120 h (female, Sprague Dawley (Crl:CD(SD)), rat, liver and plasma, 0.1 mg/kg/day, PFHxSA 0.1 mg/kg/day oral 5 days, female, individual rats, read-out: Female Partition Coefficient (Kp), liver-plasma): 0.424
Kp at 120 h (female, Sprague Dawley (Crl:CD(SD)), rat, liver and plasma, 0.3 mg/kg/day, PFHxSA 0.3 mg/kg/day oral 5 days, female rats, mean ± SD, read-out: PFHxSA liver-to-plasma Kp, Female Rats): 0.431 ± 0.16
Kp at 120 h (female, Sprague Dawley (Crl:CD(SD)), rat, liver and plasma, 1 mg/kg/day, PFHxSA 1 mg/kg/day oral 5 days, female rats, mean ± SD, read-out: PFHxSA liver-to-plasma Kp, Female Rats): 0.21 ± 0.074
Kp at 120 h (female, Sprague Dawley (Crl:CD(SD)), rat, liver and plasma, 3 mg/kg/day, PFHxSA 3 mg/kg/day oral 5 days, female rats, mean ± SD, read-out: PFHxSA liver-to-plasma Kp, Female Rats): 0.222 ± 0.048
Kp at 120 h (female, Sprague Dawley (Crl:CD(SD)), rat, liver and plasma, 3 mg/kg/day, PFHxSA 3 mg/kg/day oral 5 days, female, individual rats, read-out: Female Partition Coefficient (Kp), liver-plasma): 0.158
Kp at 120 h (female, Sprague Dawley (Crl:CD(SD)), rat, liver and plasma, 10 mg/kg/day, PFHxSA 10 mg/kg/day oral 5 days, female rats, mean ± SD, read-out: PFHxSA liver-to-plasma Kp, Female Rats): 0.135 ± 0.03
Kp at 120 h (female, Sprague Dawley (Crl:CD(SD)), rat, liver and plasma, 10 mg/kg/day, PFHxSA 10 mg/kg/day oral 5 days, female, individual rats, read-out: Female Partition Coefficient (Kp), liver-plasma): 0.183
Kp at 120 h (female, Sprague Dawley (Crl:CD(SD)), rat, liver and plasma, 30 mg/kg/day, PFHxSA 30 mg/kg/day oral 5 days, female rats, mean ± SD, read-out: PFHxSA liver-to-plasma Kp, Female Rats): 0.148 ± 0.011
Kp at 120 h (female, Sprague Dawley (Crl:CD(SD)), rat, liver and plasma, 30 mg/kg/day, PFHxSA 30 mg/kg/day oral 5 days, female, individual rats, read-out: Female Partition Coefficient (Kp), liver-plasma): 0.154
Kp at 120 h (female, Sprague Dawley (Crl:CD(SD)), rat, liver and plasma, 100 mg/kg/day, PFHxSA 100 mg/kg/day oral 5 days, female rats, mean ± SD, read-out: PFHxSA liver-to-plasma Kp, Female Rats): 0.222 ± 0.072
Kp at 120 h (female, Sprague Dawley (Crl:CD(SD)), rat, liver/plasma, 0.1 mg/kg/day, PFHxSA 0.1 mg/kg/day oral 5 days, female rats, mean ± SD, read-out: PFHxSA liver-to-plasma Kp, Female Rats): 0.42 ± 0.09
Kp at 120 h (male, Sprague Dawley (Crl:CD(SD)), rat, liver and plasma, 1 mg/kg/day, PFHxSA 1 mg/kg/day oral 5 days, male rats, mean ± SD, read-out: PFHxSA liver-to-plasma Kp, Male Rats): 0.223 ± 0.053
Kp at 120 h (male, Sprague Dawley (Crl:CD(SD)), rat, liver and plasma, 1 mg/kg/day, PFHxSA 1 mg/kg/day oral 5 days, male, individual rats, read-out: Male Partition Coefficient (Kp), liver-plasma): 0.166
